Test results: BindingDB's records for doi:10.1016/S0960-894X(01)80901-X (1993)

Target: Neuromedin-K/NK2 receptor (tachykinin receptor 2), Rattus norvegicus
Assay: Tested in vitro to inhibit the binding of [125I]NKA to its receptor in rat duodenum membrane

CC(=O)NC1(c2ccccc2)CCN(CC[C@H](CN(C)C(=O)c2ccccc2)c2ccc(Cl)c(Cl)c2)CC1 [N-[(R)-4-(4-Acetylamino-4-phenyl-piperidin-1-yl)-2-(3,4-dichloro-phenyl)-butyl]-N-methyl-benzamide]
Ki: 0.51 nM
